According to patent US10807982B2, “Bromodomain inhibitors” (CELGENE QUANTICEL RESEARCH, INC., priority 2015, dated 2020):

What was measured:
[1] = target: BRD4(BD1) (Homo sapiens (Human), UniProt O60885); test: In vitro enzyme inhibition assay (BRD4 AlphaScreen, H4-tetraacetyl peptide); type: binding; details: BRD4(BD1) 2 nM, peptide 15 nM
How it was run: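 His-tagged BRD4(BD1), 2 nM, with 15 nM biotinylated H4K5/8/12/16(Ac) peptide in HEPES pH 7.3 buffer, 0.4% DMSO, 20 min RT with compound. Streptavidin donor and Ni-chelate acceptor beads (5 μg/mL) then equilibrated 2 h. AlphaScreen signal; IC50 by four-parameter fit.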

[2] = system: HL-60, human proleukemia cells; test: Cell-MTS cellular proliferation assay, HL-60; type: cell-based; details: Homo sapiens, HL-60 cells, 168 hr incubation
How it was run: (§1)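 Cells seeded to reach ~90% confluence at 7 days (Raji 15,000, HL-60 5,000, NCI-H460 3,000 per well); 11-point compound dilution, 100 µM to 2.0 nM final, added 24 h after plating. Exposure 168 hr at 37 °C, 5% CO2; MTS read at OD490. IC50 from background-subtracted OD490 normalized to DMSO controls.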

[3] = system: NCI-H460, human non-small cell lung cancer cells; test: Cell-MTS cellular proliferation assay, NCI-H460; type: cell-based; details: Homo sapiens, 168 hr incubation
How it was run: as §1

[4] = system: Raji, human Burkitts lymphoma cells; test: Cell-MTS cellular proliferation assay, Raji; type: cell-based; details: Homo sapiens, 168 hr incubation
How it was run: as §1

Row | Compound | IC50 [1] [nM] | IC50 [2] [nM] | IC50 [3] [nM] | IC50 [4] [nM]
1 | CCS(=O)(=O)Nc1cc(-c2cc(OC)c(=O)n(C)c2)c2oc(C3CCCC3)nc2c1 [Example 57, N-[2-cyclopentyl-7-(5-methoxy-1-methyl-6-oxopyridin-3-yl)-1,3-benzoxazol-5-yl]ethanesulfonamide] | ≤ 500 | ≤ 500 | > 5000 | ≤ 500
2 | Cc1cc(-c2cc3c(S(C)(=O)=O)nn(C)c3cc2OCC2CC2)cn(C)c1=O [Example 58, 5-[6-(cyclopropylmethoxy)-1-methyl-3-methylsulfonylindazol-5-yl]-1,3-dimethylpyridin-2-one] | ≤ 500 | ≤ 500 | > 5000 | ≤ 500
3 | COc1cc(-c2cc3c(S(C)(=O)=O)nn(C)c3cc2OCC2CC2)cn(C)c1=O [Example 59, 5-[6-(cyclopropylmethoxy)-1-methyl-3-methylsulfonylindazol-5-yl]-3-methoxy-1-methylpyridin-2-one] | ≤ 500 | ≤ 500 | > 5000 | ≤ 500
4 | Cc1cc(-c2cc3c(nc(C)n3Cc3ccc(F)cc3)c(NS(C)(=O)=O)n2)cn(C)c1=O [Example 60, N-[6-(1,5-dimethyl-6-oxopyridin-3-yl)-1-[(4-fluorophenyl)methyl]-2-methylimidazo[4,5-c]pyridin-4-yl]methanesulfonamide] | ≤ 500 | ≤ 500 | > 5000 | ≤ 500
5 | Cc1cc(-c2cc3c(nc(C)n3Cc3ccccc3)c(NS(C)(=O)=O)n2)cn(C)c1=O [Example 61, N-[1-benzyl-6-(1,5-dimethyl-6-oxopyridin-3-yl)-2-methylimidazo[4,5-c]pyridine-4-yl]methanesulfonamide] | ≤ 500 | ≤ 500 | > 5000 | ≤ 500
6 | Cc1cc(-c2cc3c(nc(C)n3Cc3ccc(F)cc3F)c(NS(C)(=O)=O)n2)cn(C)c1=O [Example 62, N-[1-[(2,4-difluorophenyl)methyl]-6-(1,5-dimethyl-6-oxopyridin-3-yl)-2-methylimidazo[4,5-c]pyridin-4-yl]methanesulfonamide] | ≤ 500 | ≤ 500 | > 5000 | ≤ 500
7 | Cc1cc(-c2cc(NS(C)(=O)=O)c3c(F)nn(Cc4ccc(F)cc4)c3c2)cn(C)c1=O [Example 64, N-[6-(1,5-dimethyl-6-oxopyridin-3-yl)-3-fluoro-1-[(4-fluorophenyl)methyl]indazol-4-yl]methanesulfonamide] | ≤ 500 | ≤ 500 | > 5000 | ≤ 500
8 | COc1cc(-c2cc(NS(C)(=O)=O)c3c(F)nn(Cc4ccc(F)cc4)c3c2)cn(C)c1=O [Example 65, N-[3-fluoro-1-[(4-fluorophenyl)methyl]-6-(5-methoxy-1-methyl-6-oxopyridin-3-yl)indazol-4-yl]methanesulfonamide] | ≤ 500 | ≤ 500 | > 5000 | ≤ 500
9 | Cc1cc(-c2cc(NS(C)(=O)=O)c3c(F)nn(CC4CC4)c3c2)cn(C)c1=O [Example 66, N-[1-(cyclopropylmethyl)-6-(1,5-dimethyl-6-oxopyridin-3-yl)-3-fluoroindazol-4-yl]methanesulfonamide] | ≤ 500 | ≤ 500 | > 5000 | ≤ 500
10 | Cc1cc(-c2cc(S(C)(=O)=O)c3nc(C)n(Cc4ccccc4)c3c2)cn(C)c1=O [Example 67, 5-(3-benzyl-2-methyl-7-methylsulfonylbenzimidazol-5-yl)-1,3-dimethylpyridin-2-one] | ≤ 500 | ≤ 500 | > 5000 | ≤ 500
11 | CCS(=O)(=O)c1cc(-c2cc(OC)c(=O)n(C)c2)cc2c1nc(C)n2Cc1ccccc1 [Example 68, 5-(3-benzyl-7-ethylsulfonyl-2-methylbenzimidazol-5-yl)-3-methoxy-1-methylpyridin-2-one] | ≤ 500 | 500 to 5000 | > 5000 | 500 to 5000
12 | Cc1cc(-c2cc(S(C)(=O)=O)c3nc(C)n(CC4CC4)c3c2)cn(C)c1=O [Example 71, 5-[3-(cyclopropylmethyl)-2-methyl-7-methylsulfonylbenzimidazol-5-yl]-1,3-dimethylpyridin-2-one] | ≤ 500 | 500 to 5000 | > 5000 | > 5000
13 | CCOc1nc2c(NS(C)(=O)=O)cc(-c3cc(C)c(=O)n(C)c3)cc2n1CC1CC1 [Example 72, N-[1-(cyclopropylmethyl)-6-(1,5-dimethyl-6-oxopyridin-3-yl)-2-ethoxybenzimidazol-4-yl]methanesulfonamide] | ≤ 500 | ≤ 500 | 500 to 5000 | ≤ 500
14 | COc1nc2c(NS(C)(=O)=O)cc(-c3cc(C)c(=O)n(C)c3)cc2n1CC1CC1 [Example 73, N-[1-(cyclopropylmethyl)-6-(1,5-dimethyl-6-oxopyridin-3-yl)-2-methoxybenzimidazol-4-yl]methanesulfonamide] | ≤ 500 | ≤ 500 | 500 to 5000 | ≤ 500
15 | Cn1cc(-c2cc(NS(C)(=O)=O)cc3cc(C4CC4)oc23)c2ccccc2c1=O [Example 79, N-[2-cyclopropyl-7-(2-methyl-1-oxoisoquinolin-4-yl)-1-benzofuran-5-yl]methanesulfonamide] | ≤ 500 | ≤ 500 | ≤ 500 | ≤ 500
16 | Cc1cc(-c2cc(NS(C)(=O)=O)cc3cc(C4CC4)oc23)cn(C)c1=O [Example 80, N-[2-cyclopropyl-7-(1,5-dimethyl-6-oxopyridin-3-yl)-1-benzofuran-5-yl]methanesulfonamide] | ≤ 500 | ≤ 500 | 500 to 5000 | ≤ 500
17 | CCS(=O)(=O)Nc1cc(-c2cn(C)c(=O)c3ccccc23)c2oc(C3CC3)cc2c1 [Example 82, N-[2-cyclopropyl-7-(2-methyl-1-oxoisoquinolin-4-yl)-1-benzofuran-5-yl]ethanesulfonamide] | ≤ 500 | ≤ 500 | ≤ 500 | ≤ 500
18 | Cc1cc(-c2cc(NS(C)(=O)=O)cc3cc(-c4ccccc4)oc23)cn(C)c1=O [Example 83, N-[7-(1,5-dimethyl-6-oxopyridin-3-yl)-2-phenyl-1-benzofuran-5-yl]methane-sulfonamide] | ≤ 500 | 500 to 5000 | 500 to 5000 | 500 to 5000
19 | Cn1cc(-c2cc(NS(C)(=O)=O)cc3cc(-c4ccccc4)oc23)c2ccccc2c1=O [Example 84, N-[7-(2-methyl-1-oxoisoquinolin-4-yl)-2-phenyl-1-benzofuran-5-yl]methanesulfonamide] | ≤ 500 | ≤ 500 | ≤ 500 | ≤ 500
20 | Cc1cc(-c2cc(S(C)(=O)=O)ccc2OCC2CC2)c2n(c1=O)CCC2 [Example 85, 8-[2-(cyclopropylmethoxy)-5-methylsulfonylphenyl]-6-methyl-2,3-dihydro-1H-indolizin-5-one] | ≤ 500 | ≤ 500 | > 5000 | 500 to 5000
21 | Cc1cc(-c2cc(NS(C)(=O)=O)ccc2Oc2ccc(F)cc2F)c2n(c1=O)CCC2 [Example 86, N-[4-(2,4-difluorophenoxy)-3-(6-methyl-5-oxo-2,3-dihydro-1H-indolizin-8-yl)phenyl]methanesulfonamide] | ≤ 500 | ≤ 500 | > 5000 | ≤ 500
22 | Cc1cc(-c2cc(S(C)(=O)=O)ccc2OCC2CC2)c2n(c1=O)CC(C)(C)C2 [Example 87, 8-[2-(cyclopropylmethoxy)-5-methylsulfonylphenyl]-2,2,6-trimethyl-1,3-dihydroindolizin-5-one] | ≤ 500 | ≤ 500 | > 5000 | ≤ 500
23 | Cc1cc(-c2cc(NS(C)(=O)=O)ccc2Oc2ccc(F)cc2F)c2n(c1=O)CC(C)(C)C2 [Example 88, N-[4-(2,4-difluorophenoxy)-3-(2,2,6-trimethyl-5-oxo-1,3-dihydroindolizin-8-yl)phenyl]methanesulfonamide] | ≤ 500 | ≤ 500 | > 5000 | ≤ 500
24 | COc1cc(-c2cc3c(S(C)(=O)=O)cccc3n2CCC2CC2)cn(C)c1=O [Example 91, 5-[1-(2-cyclopropylethyl)-4-methylsulfonylindol-2-yl]-3-methoxy-1-methylpyridin-2-one] | ≤ 500 | ≤ 500 | > 5000 | ≤ 500
25 | Cc1cc(-c2cc(NS(C)(=O)=O)c3nc(C(F)(F)F)n(CC4CC4)c3c2)cn(C)c1=O [Example 92, N-[1-(cyclopropylmethyl)-6-(1,5-dimethyl-6-oxopyridin-3-yl)-2-(trifluoromethyl)benzimidazol-4-yl]methanesulfonamide] | ≤ 500 | ≤ 500 | 500 to 5000 | ≤ 500
26 | COc1cc(-c2cc(NS(C)(=O)=O)c3nc(C(F)(F)F)n(CC4CC4)c3c2)cn(C)c1=O [Example 93, N-[1-(cyclopropylmethyl)-6-(5-methoxy-1-methyl-6-oxopyridin-3-yl)-2-(trifluoromethyl)benzimidazol-4-yl]methanesulfonamide] | ≤ 500 | ≤ 500 | > 5000 | ≤ 500
